Here are results for 1 compound from patent US20150045610A1, “METHOD OF MODIFYING SPERMATOGENESIS, SPERMIOGENESIS AND/OR FERTILITY IN MAMMALS” (Monell Chemical Senses Center, priority 2012, published 2015).

In the test the target is T1, humanized mhT1R3 (Homo sapiens, UniProt Q7RTX0, A109T/A120V/A176D/A197V/A198V/A228S/A231N/A248T/A280V/A282S/A302S/A412V/A417V/A46T/A537T/C375D/D124S/D249S/D250G/D364H/D419E/D470T/D491G/D88A/DEL352-352/DEL488-489/E172D/E199T/E203N/E217D/E356N/E45S/E481Q/E505D/E525K/E545Q/F540P/F555L/G168S/G205S/G311T/G314N/G355L/G360D/G414H/G438R/G439D/G463S/G50T/G542N/H261R/H278R/H281Y/H332P/I485M/I536F/INS376MLQNLSSG/K32Q/K339E/K422L/K494V/K86G/L173R/L245Q/L272V/L29F/L354S/L385Q/L433M/L458M/L483S/L71F/L74M/M151L/M315I/M318V/M31A/N285S/N386L/N532H/N68L/P112S/P246H/P335S/P416H/P420H/P441T/P60I/Q221E/Q257L/Q317R/Q330L/Q336H/Q359L/Q372R/Q418S/Q504K/Q531K/R123Q/R247D/R252Q/R291G/R30K/R357A/R443Q/R467V/R473T/R479Q/R482Q/R486Y/R498Q/R52N/R550K/R553A/R556P/R560K/R56Q/S251Q/S267K/S289H/S290H/S392A/S446A/S447E/S464P/S477T/S490P/S53Q/S559P/S58N/S67P/T195Q/T346A/T377L/T390I/T434S/T480L/T63N/V152I/V277A/V366M/V36I/V381L/V393T/V437A/V465T/V61P/W72L).
T1 construct: the extracellular domain is of mouse origin and the transmembrane and intracellular domains of human origin; mouse T1R3 extracellular domain (fusion partner replacing the human extracellular domain); expressed in transfected cells; host or cells: transgenic mice (Line 7, 9, 7c) on T1R3-null background; transgene under 13 kb T1R3 promoter, followed by IRES-eGFP
T1 sequence (Q7RTX0 with tags, fused parts or gaps L29F/R30K/M31A/K32Q/V36I/E45S/A46T/G50T/R52N/S53Q/R56Q/S58N/P60I/V61P/T63N/S67P/N68L/L71F/W72L/L74M/K86G/D88A/A109T/P112S/A120V/R123Q/D124S/M151L/V152I/G168S/E172D/L173R/A176D/T195Q/A197V/A198V/E199T/E203N/G205S/E217D/Q221E/A228S/A231N/L245Q/P246H/R247D/A248T/D249S/D250G/S251Q/R252Q/Q257L/H261R/S267K/L272V/V277A/H278R/A280V/H281Y/A282S/N285S/S289H/S290H/R291G/A302S/G311T/G314N/M315I/Q317R/M318V/Q330L/H332P/P335S/Q336H/K339E/T346A/DEL352-352/L354S/G355L/E356N/R357A/Q359L/G360D/D364H/V366M/Q372R/C375D/INS376MLQNLSSG/T377L/V381L/L385Q/N386L/T390I/S392A/V393T/A412V/G414H/P416H/A417V/Q418S/D419E/P420H/K422L/L433M/T434S/V437A/G438R/G439D/P441T/R443Q/S446A/S447E/L458M/G463S/S464P/V465T/R467V/D470T/R473T/S477T/R479Q/T480L/E481Q/R482Q/L483S/I485M/R486Y/DEL488-489/S490P/D491G/K494V/R498Q/Q504K/E505D/E525K/Q531K/N532H/I536F/A537T/F540P/G542N/E545Q/R550K/R553A/F555L/R556P/S559P/R560K limits assumed): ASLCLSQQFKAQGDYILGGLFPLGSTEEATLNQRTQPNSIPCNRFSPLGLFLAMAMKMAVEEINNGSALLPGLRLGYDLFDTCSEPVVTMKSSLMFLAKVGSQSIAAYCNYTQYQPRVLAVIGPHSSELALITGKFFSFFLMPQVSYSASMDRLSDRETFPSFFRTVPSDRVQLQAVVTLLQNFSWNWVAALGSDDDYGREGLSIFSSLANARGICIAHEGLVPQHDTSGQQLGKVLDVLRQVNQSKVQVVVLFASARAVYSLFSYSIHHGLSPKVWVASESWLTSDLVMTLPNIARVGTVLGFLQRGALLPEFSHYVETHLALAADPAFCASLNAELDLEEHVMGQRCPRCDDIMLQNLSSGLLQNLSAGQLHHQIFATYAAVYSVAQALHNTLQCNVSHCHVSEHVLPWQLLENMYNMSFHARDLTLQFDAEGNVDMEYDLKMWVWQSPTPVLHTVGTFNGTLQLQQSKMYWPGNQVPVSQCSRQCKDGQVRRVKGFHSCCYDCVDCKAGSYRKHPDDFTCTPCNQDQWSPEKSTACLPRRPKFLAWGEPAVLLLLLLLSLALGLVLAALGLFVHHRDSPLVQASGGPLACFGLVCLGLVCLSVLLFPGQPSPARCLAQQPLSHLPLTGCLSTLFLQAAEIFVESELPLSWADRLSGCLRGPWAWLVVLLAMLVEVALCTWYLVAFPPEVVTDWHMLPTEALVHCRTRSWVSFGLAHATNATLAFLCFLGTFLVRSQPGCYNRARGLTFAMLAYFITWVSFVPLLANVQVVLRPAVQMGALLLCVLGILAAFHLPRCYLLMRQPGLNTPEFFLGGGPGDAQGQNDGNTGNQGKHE
T1 sequence (Q925I4 20-843 partner): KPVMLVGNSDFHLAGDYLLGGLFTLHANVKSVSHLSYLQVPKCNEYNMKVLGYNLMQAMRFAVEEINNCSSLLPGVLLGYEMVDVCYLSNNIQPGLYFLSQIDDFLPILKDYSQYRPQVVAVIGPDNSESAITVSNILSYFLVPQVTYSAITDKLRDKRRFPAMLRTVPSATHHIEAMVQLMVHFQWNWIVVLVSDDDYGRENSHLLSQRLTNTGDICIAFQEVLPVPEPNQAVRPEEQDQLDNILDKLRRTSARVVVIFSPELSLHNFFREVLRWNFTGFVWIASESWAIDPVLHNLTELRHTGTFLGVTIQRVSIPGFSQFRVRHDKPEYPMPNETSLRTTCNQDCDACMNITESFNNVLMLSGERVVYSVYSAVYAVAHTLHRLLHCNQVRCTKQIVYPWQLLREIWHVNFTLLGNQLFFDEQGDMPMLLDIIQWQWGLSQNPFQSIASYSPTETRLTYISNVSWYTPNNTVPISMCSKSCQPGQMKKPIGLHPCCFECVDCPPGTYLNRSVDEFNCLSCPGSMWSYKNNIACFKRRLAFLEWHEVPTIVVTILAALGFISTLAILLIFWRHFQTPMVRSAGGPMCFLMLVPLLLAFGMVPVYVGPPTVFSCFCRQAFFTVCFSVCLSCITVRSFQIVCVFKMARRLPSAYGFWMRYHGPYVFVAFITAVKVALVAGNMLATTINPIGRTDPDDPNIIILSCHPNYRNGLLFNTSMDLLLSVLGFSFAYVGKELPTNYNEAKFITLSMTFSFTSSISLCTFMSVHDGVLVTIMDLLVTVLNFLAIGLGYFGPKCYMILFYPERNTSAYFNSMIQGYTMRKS
Put plainly: sweet taste preference of transgenic mice expressing humanized T1R3. In kind it is in vivo, mouse. As for the experimental part: We used the chimeric mhT1R3 receptor to produce conventional transgenic animals. The DNA construct was injected into a genetically engineered mouse line that lacks endogenous T1R3 (T1R3KO or T1R3-null). […] We call these mice Line7.
For further crosses, we used the line 7 that has fewer copies of the transgene.
Such compounds may be produced normally in organs (e.g. in testis) or chemically synthesized.

With `CC(C)(Oc1ccc(Cl)cc1)C(=O)O` [clofibric acid], the “sweet preference of Line 7 mice” value (1 mM clofibric acid) is on record as “blocked”. The “sweet responses of the transgenic animals” value (lines 7, 9, 7c expressing humanized receptor) is reported as “completely blocked”.
